Results from ChEMBL document CHEMBL4342403, “New evolutions in the BACE1 inhibitor field from 2014 to 2018” (Bioorg Med Chem Lett, 2019).

Key:
[1] = tested on: Rattus norvegicus; test: In vivo inhibition of BACE1 in Sprague Dawley rat assessed as reduction in amyloidbeta 40 level in brain at 3 mg/kg, po by ELISA relative to control; type: functional
[2] = Drug uptake in Sprague Dawley rat brain at 3 mg/kg, po by UPLC-MS/MS analysis; type: ADME, organism-based; conditions: in vivo
[3] = target: P-glycoprotein (ABCB1) (Homo sapiens, UniProt P08183); test: Substrate activity at P-glycoprotein (unknown origin) in MDCK-MDR1cells assessed as efflux ratio incubated over 60 mins by LC-MS/MS analysis; conditions: MDCK-MDR1
[4] = target: T1, Beta-secretase 1 (Homo sapiens, UniProt P56817); test: Inhibition of human BACE1 catalytic domain preincubated for 30 mins followed by QSY7-EISEVNLDAEFC-Europium-amide substrate addition and measured after […] by HTRF assay
[5] = target: T2, Beta-secretase 2 (Homo sapiens, UniProt Q9Y5Z0); test: Inhibition of human BACE2 preincubated for 30 mins followed by QSY7- EISEVNLDAEFC-Eu-amide substrate addition and measured after […] by HTRF assay
T2 sequence (Q9Y5Z0 whole entry): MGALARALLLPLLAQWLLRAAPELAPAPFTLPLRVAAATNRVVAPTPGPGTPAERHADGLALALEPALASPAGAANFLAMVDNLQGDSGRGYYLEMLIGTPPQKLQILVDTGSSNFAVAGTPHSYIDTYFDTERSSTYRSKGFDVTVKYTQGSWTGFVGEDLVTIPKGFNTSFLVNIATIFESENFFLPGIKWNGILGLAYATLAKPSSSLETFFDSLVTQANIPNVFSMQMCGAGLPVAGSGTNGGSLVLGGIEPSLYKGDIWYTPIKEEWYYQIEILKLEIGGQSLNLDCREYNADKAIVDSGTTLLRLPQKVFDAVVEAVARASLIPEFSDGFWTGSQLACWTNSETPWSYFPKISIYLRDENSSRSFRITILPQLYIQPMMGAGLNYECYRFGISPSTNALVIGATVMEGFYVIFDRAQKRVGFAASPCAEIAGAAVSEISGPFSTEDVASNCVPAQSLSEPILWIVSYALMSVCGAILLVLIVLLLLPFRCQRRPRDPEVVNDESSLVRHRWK

[6] = tested on: Rattus norvegicus; test: In vivo inhibition of BACE1 in CD-IGS rat assessed as reduction in amyloidbeta 40 level in CSF at 10 mg/kg, po measured at 3 hrs post dose by sandwich ELISA relative to control; type: functional
[7] = target: T1, Beta-secretase 1; test: Inhibition of BACE1 (unknown origin) incubated for 120 mins using APP swedish mutant as substrate by FRET assay
[8] = target: T2, Beta-secretase 2; test: Inhibition of BACE2 (unknown origin) incubated for 450 mins using APP swedish mutant as substrate by FRET assay
[9] = tested on: Canis familiaris; test: In vivo inhibition of BACE1 in Beagle dog assessed as reduction in amyloidbeta (1 to 42 residues) at 0.16 mg/kg, po measured at 8 hrs post dose relative to baseline; type: functional; conditions: Canis lupus familiaris
[10] = tested on: Canis familiaris; test: In vivo inhibition of BACE1 in Beagle dog assessed as reduction in amyloidbeta (1 to 42 residues) at 0.31 mg/kg, po measured at 8 hrs post dose relative to baseline; type: functional; conditions: Canis lupus familiaris
[11] = tested on: Canis familiaris; test: In vivo inhibition of BACE1 in Beagle dog assessed as reduction in amyloidbeta (1 to 42 residues) at 1.25 mg/kg, po measured at 8 hrs post dose relative to baseline; type: functional; conditions: Canis lupus familiaris
[12] = target: T1, Beta-secretase 1; test: Inhibition of BACE1 in human SK-N-BE(2) cells expressing human APP695 assessed as reduction in amyloidbeta (1 to 42 residues) level incubated for 18 hrs by sandwich ELISA; type: cell-based
[13] = tested on: Rattus norvegicus; test: In vivo inhibition of BACE1 in Sprague Dawley rat assessed as reduction in amyloidbeta 40 level in brain at 10 mg/kg, po measured at 3 hrs post dose by ELISA relative to control; type: functional
[14] = tested on: Rattus norvegicus; test: In vivo inhibition of BACE1 in Sprague Dawley rat assessed as reduction in amyloidbeta 40 level in brain at 30 mg/kg, po measured at 3 hrs post dose by ELISA relative to control; type: functional
[15] = Brain to plasma partition coefficient, Kp of the compound in Sprague Dawley rat at 10 mg/kg, po; type: ADME, organism-based
[16] = Brain to plasma partition coefficient, Kp of the compound in Sprague Dawley rat at 30 mg/kg, po; type: ADME, organism-based
[17] = tested on: Homo sapiens; test: In vivo inhibition of BACE1 in human assessed as reduction in amyloidbeta40 level in CSF at 12 mg administered once daily for 7 days relative to baseline; type: functional
[18] = tested on: Homo sapiens; test: In vivo inhibition of BACE1 in human assessed as reduction in amyloidbeta40 level in CSF at 40 mg administered once daily for 7 days relative to baseline; type: functional
[19] = tested on: Homo sapiens; test: In vivo inhibition of BACE1 in human assessed as reduction in amyloidbeta40 level in CSF at 60 mg administered once daily for 7 days relative to baseline; type: functional
[20] = tested on: Homo sapiens; test: In vivo inhibition of BACE1 in human assessed as reduction in amyloidbeta(1 to 42 residues) level in CSF at 50 mg, qd administered up to 14 days relative to control; type: functional
[21] = tested on: Homo sapiens; test: In vivo inhibition of BACE1 in human assessed as reduction in amyloidbeta(1 to 42 residues) level in CSF at 125 mg, qd administered up to 14 days relative to control; type: functional
[22] = tested on: Homo sapiens; test: In vivo inhibition of BACE1 in human assessed as reduction in amyloidbeta(1 to 42 residues) level in CSF at 275 mg, qd administered up to 14 days relative to control; type: functional
[23] = Dissociation constant, pKa of the compound; type: physicochemical
[24] = tested on: Homo sapiens; test: In vivo inhibition of BACE1 in human assessed as reduction in amyloidbeta40 level in CSF at 15 mg administered once daily for 14 days relative to baseline; type: functional
[25] = tested on: Homo sapiens; test: In vivo inhibition of BACE1 in human assessed as reduction in amyloidbeta40 level in CSF at 50 mg administered once daily for 14 days relative to baseline; type: functional
[26] = tested on: Homo sapiens; test: In vivo inhibition of BACE1 in human assessed as reduction in amyloidbeta40 level in CSF at 150 mg administered once daily for 14 days relative to baseline; type: functional
[27] = organism: Homo sapiens; test: Selectivity ratio of IC50 for human BACE2 to IC50 for human BACE1
[28] = target: Beta-secretase 1 (Cricetulus griseus, UniProt G3IAK4); test: Inhibition of BACE1 in CHO cells expressing human APP assessed as reduction in amyloidbeta (1 to 40 residues) level incubated for 24 hrs by immunoassay method; type: cell-based
Beta-secretase 1 (Cricetulus griseus, UniProt G3IAK4), sequence (G3IAK4 whole entry, the tested form may be a part): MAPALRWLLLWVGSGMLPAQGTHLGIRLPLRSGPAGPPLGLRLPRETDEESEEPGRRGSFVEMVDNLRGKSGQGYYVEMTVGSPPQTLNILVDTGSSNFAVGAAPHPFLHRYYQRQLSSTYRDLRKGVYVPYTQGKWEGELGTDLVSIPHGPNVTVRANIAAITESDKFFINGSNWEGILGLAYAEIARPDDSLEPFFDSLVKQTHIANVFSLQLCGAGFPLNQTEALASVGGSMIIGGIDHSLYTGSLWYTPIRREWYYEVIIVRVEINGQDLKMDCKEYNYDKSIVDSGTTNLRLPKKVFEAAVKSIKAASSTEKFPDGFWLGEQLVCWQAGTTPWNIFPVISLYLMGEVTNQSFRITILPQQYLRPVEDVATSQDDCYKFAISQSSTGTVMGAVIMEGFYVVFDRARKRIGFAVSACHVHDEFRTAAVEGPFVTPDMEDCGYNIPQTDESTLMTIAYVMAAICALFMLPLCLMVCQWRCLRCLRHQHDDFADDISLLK

T1 sequence (P56817 whole entry, the tested form may be a part): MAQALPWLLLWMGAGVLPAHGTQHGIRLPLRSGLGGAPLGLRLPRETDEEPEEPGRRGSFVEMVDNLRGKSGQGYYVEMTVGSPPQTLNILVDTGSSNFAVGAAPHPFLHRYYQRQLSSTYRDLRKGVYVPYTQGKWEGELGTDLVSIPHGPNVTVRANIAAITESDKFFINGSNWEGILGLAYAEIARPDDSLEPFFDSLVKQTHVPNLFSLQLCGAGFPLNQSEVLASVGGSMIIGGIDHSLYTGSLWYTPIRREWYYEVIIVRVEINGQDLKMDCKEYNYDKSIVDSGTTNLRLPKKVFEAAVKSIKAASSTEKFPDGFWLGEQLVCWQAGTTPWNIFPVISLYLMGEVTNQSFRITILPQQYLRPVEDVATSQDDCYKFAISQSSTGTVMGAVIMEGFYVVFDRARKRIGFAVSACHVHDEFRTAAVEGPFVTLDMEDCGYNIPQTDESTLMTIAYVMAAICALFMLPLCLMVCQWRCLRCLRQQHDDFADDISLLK
P-glycoprotein (ABCB1), sequence (P08183 whole entry, the tested form may be a part): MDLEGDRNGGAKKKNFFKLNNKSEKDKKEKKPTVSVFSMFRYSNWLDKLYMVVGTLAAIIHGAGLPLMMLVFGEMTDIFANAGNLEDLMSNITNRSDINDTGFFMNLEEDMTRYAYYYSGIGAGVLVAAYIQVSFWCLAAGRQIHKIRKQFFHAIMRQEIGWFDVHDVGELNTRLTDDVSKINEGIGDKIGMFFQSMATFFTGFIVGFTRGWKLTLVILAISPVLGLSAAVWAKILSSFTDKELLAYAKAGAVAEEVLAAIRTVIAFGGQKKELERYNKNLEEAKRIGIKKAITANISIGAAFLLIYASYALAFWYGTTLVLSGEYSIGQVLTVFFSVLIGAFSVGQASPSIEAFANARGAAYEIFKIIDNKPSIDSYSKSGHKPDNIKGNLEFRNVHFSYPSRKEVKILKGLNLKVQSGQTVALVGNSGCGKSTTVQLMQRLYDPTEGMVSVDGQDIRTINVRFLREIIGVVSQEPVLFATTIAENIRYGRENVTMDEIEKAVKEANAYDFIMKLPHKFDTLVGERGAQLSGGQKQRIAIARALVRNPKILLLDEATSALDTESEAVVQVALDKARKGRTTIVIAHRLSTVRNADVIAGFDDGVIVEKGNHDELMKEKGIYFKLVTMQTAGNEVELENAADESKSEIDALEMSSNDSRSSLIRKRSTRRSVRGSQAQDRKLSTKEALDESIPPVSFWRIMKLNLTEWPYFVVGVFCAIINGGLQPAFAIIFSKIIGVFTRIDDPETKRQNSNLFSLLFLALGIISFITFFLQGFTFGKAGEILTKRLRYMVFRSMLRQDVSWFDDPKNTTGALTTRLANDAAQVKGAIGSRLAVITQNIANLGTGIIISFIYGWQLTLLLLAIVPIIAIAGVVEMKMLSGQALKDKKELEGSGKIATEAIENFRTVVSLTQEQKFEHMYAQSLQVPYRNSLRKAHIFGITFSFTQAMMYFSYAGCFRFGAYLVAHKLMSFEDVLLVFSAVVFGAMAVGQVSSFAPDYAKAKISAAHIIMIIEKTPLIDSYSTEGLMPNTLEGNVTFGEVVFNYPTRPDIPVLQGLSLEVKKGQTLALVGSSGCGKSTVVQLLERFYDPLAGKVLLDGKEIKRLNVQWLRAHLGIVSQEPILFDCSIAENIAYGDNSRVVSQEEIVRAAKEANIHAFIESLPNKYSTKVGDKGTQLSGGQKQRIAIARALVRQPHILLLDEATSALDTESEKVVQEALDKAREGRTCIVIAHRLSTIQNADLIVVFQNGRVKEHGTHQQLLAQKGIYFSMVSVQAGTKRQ

[2H]C([2H])([2H])Oc1cnc(C(=O)Nc2ccc(F)c([C@@]3(C)N=C(N)[C@@](C)(F)C[C@@H]3F)c2)cn1
inhibition in vivo at 3 mg/kg [1]: 52%
Drug uptake [2]: 610 ng/g
efflux ratio at 1 h [3]: 0.85

COc1cnc2c(Nc3ccc(F)c([C@]4(C)CS(=O)(=O)N(C)C(N)=N4)c3)nccc2c1
Ki [4]: 2.6 nM
Ki [5]: 3.5 nM
inhibition in vivo at 10 mg/kg [6]: 68%

C[C@H]1OC[C@]2(c3cc(NC(=O)c4ccc(C#N)cn4)ccc3F)N=C(N)[C@](C)(C#N)C[C@H]12
IC50 [7]: 1.86 nM
IC50 [8]: 14.5 nM
inhibition in vivo at 0.16 mg/kg [9]: 42%
inhibition in vivo at 0.31 mg/kg [10]: 54%
inhibition in vivo at 1.25 mg/kg [11]: 80%
IC50 [12]: 1.26 nM

Cc1cc(C#N)cnc1C(=O)Nc1ccc(F)c([C@@]2(C)N=C(N)[C@@](C)(F)CC2(F)F)c1
inhibition in vivo at 10 mg/kg [13]: 66%
inhibition in vivo at 30 mg/kg [14]: 61%
Kp [15]: 0.5
Kp [16]: 0.5

CN1C(N)=N[C@](C)(c2cc(NC(=O)c3ccc(F)cn3)ccc2F)CS1(=O)=O [VERUBECESTAT]
inhibition (INH) [17]: 57%
inhibition (INH) [18]: 79%
inhibition (INH) [19]: 84%

C[C@H]1C[C@H]2CSC(N)=N[C@@]2(c2nc(NC(=O)c3ccc(OC(F)F)cn3)cs2)CO1
inhibition (INH) [20]: 69%
inhibition (INH) [21]: 84%
inhibition (INH) [22]: 93%
pKa [23]: 6.9

CC#Cc1cncc(-c2ccc3c(c2)[C@]2(N=C(C)C(N)=N2)[C@]2(CC[C@@H](OC)CC2)C3)c1
inhibition (INH) [24]: 52%
inhibition (INH) [25]: 76%
inhibition (INH) [26]: 90%

CC(F)(F)[C@H]1OC[C@]2(c3cc(NC(=O)c4cnc(-n5cncn5)cn4)ccc3F)N=C(N)SC[C@H]12
Ratio IC50 [27]: > 400

C[C@]1(c2nc(NC(=O)c3ncc(C#N)cc3Cl)ccc2F)N=C(N)OCC1(F)F
IC50 [28]: 8 nM
